Literature values, collected in patent publication US20180153800A1, “PERSONAL LUBRICANT PROVIDING SEQUENTIAL MULTISENSORIAL PERCEPTIONS AND ARTICLES INCORPORATING SUCH LUBRICANT” (Church & Dwight Co., Inc., priority 2016, published 2018).

Tested on: human tissue

SMILES	time of onset of cooling sensation (after tissue contact)	sensation duration (cooling sensation)	cooling sensation relative to menthol (reference menthol) [times]
CC1CCC(C(C)C)C(OC(=O)CCC(=O)N(C)C)C1 (stereo not drawn) [2-isopropyl-5-methylcyclohexyl 4-(dimethylamino)-4-oxobutanoate]	about 25 seconds	about 11.25 minutes	
CC1CCC(C(C)C)C(C(=O)Nc2ccc(CC#N)cc2)C1 (stereo not drawn) [N-(4-cyanomethylphenyl) p-menthanecarboxamide]			10
